Test results published in patent US20060074103A1, “Cyclic beta-amino acid derivatives as factor Xa inhibitors” (priority 2004, published 2006).

melting point: 301 to 303 °C
SMILES: O=C(N[C@H]1CCCC[C@@H]1C(=O)Nc1ccc(Cl)cn1)c1ccc(-n2ccccc2=O)cc1 [Example 1]
